Reference: patent publication US20240360151A1 (SANOFI, priority 2023, published 2024)

What follows are compounds tested against T1, NLRP3 inflammasome (Homo sapiens, UniProt Q96P20) (assay: IL-1β secretion assay (NLRP3 IC50) in LPS-primed, nigericin-activated THP-1 cells, HTRF). Conditions: monocytic THP-1 cells; LPS 10 ng/mL 3 h priming, then compound + nigericin 10 μM 2 h; relative IC50, 10 concentrations, geometric mean.
T1 construct: endogenous in cells; host or cells: THP-1 monocytic cells
T1 sequence (Q96P20 whole entry): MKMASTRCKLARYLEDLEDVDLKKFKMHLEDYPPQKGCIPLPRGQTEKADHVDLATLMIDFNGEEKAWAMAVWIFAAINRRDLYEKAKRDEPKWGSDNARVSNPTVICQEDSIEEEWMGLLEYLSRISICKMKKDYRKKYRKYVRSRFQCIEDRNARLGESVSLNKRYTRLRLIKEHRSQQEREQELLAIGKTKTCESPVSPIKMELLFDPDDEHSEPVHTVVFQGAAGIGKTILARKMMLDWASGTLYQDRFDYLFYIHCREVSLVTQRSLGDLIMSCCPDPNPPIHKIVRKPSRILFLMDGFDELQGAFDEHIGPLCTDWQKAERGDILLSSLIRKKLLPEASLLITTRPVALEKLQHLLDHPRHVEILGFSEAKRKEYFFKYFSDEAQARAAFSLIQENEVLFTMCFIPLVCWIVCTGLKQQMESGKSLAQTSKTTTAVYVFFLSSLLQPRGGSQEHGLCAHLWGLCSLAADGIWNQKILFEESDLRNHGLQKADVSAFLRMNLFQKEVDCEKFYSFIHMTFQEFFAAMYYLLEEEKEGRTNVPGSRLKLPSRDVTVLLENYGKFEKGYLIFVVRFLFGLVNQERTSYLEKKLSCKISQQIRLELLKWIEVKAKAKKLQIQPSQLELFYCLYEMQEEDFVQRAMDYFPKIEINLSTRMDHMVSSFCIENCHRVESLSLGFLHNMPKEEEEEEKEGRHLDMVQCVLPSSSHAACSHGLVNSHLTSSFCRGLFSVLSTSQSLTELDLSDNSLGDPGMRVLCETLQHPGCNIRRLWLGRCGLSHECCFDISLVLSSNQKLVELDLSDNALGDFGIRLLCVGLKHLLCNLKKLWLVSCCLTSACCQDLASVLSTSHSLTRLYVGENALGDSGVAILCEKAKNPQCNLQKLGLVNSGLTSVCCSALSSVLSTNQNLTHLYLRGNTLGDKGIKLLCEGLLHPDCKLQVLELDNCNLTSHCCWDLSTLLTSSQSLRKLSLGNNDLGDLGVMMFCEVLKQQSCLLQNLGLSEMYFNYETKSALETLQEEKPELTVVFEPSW
Type: cell-based
Procedure, shortened: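 THP-1 cells primed with LPS 10 ng/mL for 3 h at 37° C., then compound (10-point 1:3 dilution, 0.1% DMSO) added with 10 μM nigericin for 2 h. Supernatant IL-1β measured by HTRF; relative IC50 from a 4-parameter logistic fit, reported as geometric mean.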
Work on `Cc1cc(C)c(-c2ccc(N3CCO[C@H]4CN(C5CCC5)CC[C@H]43)nn2)c(O)c1` (racemic) [Example 4, 3,5-dimethyl-2-[6-[rac-(4aS,8aR)-6-cyclobutyl-3,4a,5,7,8,8a-hexahydro-2H-pyrido[3,4-b][1,4]oxazin-1-yl]pyridazin-3-yl]phenol] yielded an IC50 of 251 nM. Work on `Cc1cc(C)c(-c2ccc(N3CCO[C@@H]4COCC[C@H]43)nn2)c(O)c1` (racemic) [Example 154, 3,5-dimethyl-2-[6-[rac-(4aR,8aS)-3,4a,5,7,8,8a-hexahydro-2H-pyrano[3,4-b][1,4]oxazin-1-yl]pyridazin-3-yl]phenol] yielded an IC50 of 344 nM. Work on `Cc1cc(C)c(-c2ccc(N3CCO[C@H]4CCNC[C@H]43)nn2)c(O)c1` (racemic) [Example 195, 3,5-dimethyl-2-[6-[rac-(4aR,8aS)-2,3,4a,5,6,7,8,8a-octahydropyrido[4,3-b][1,4]oxazin-4-yl]pyridazin-3-yl]phenol] yielded an IC50 of 14 nM. For `CC(=O)N1CCC[C@H]2[C@@H]1CCCN2c1ccc(-c2c(C)cc(C(F)(F)F)cc2O)nn1` [Example 463, 1-[(4aS,8aS)-5-[6-[2-hydroxy-6-methyl-4-(trifluoromethyl)phenyl]pyridazin-3-yl]-2,3,4,4a,6,7,8,8a-octahydro-1,5-naphthyridin-1-yl]ethanone], the IC50 was 3780 nM. Work on `CCc1cc(N2CCO[C@@H]3CCN(C)C[C@@H]32)nnc1-c1ccc(C)cc1O` [Example 470, 2-[6-[(4aS,8aR)-6-methyl-3,4a,5,7,8,8a-hexahydro-2H-pyrido[4,3-b][1,4]oxazin-4-yl]-4-ethyl-pyridazin-3-yl]-5-methyl-phenol] yielded an IC50 of 0.38 nM. For `Cc1cc(N2CCO[C@@H]3CCN(C)C[C@@H]32)nnc1-c1ccc2c(c1O)CCC2` [Example 471, 5-[6-[(4aS,8aR)-6-methyl-3,4a,5,7,8,8a-hexahydro-2H-pyrido[4,3-b][1,4]oxazin-4-yl]-4-methyl-pyridazin-3-yl]indan-4-ol], the IC50 was 1 nM. Work on `Cc1ccc(-c2nnc(N3CCO[C@@H]4CCN(C(C)C)C[C@@H]43)cc2C)c(O)c1` [Example 472, 2-[6-[(4aS,8aR)-6-isopropyl-3,4a,5,7,8,8a-hexahydro-2H-pyrido[4,3-b][1,4]oxazin-4-yl]-4-methyl-pyridazin-3-yl]-5-methyl-phenol] yielded an IC50 of 1 nM. For `CCN1CC[C@H]2OCCN(c3cc(C)c(-c4ccc(F)cc4O)nn3)[C@H]2C1` [Example 479, 2-[6-[(4aS,8aR)-6-ethyl-3,4a,5,7,8,8a-hexahydro-2H-pyrido[4,3-b][1,4]oxazin-4-yl]-4-methyl-pyridazin-3-yl]-5-fluoro-phenol], the IC50 was 5 nM. `Cc1cc(N2CCO[C@@H]3CCN(C)C[C@@H]32)nnc1-c1ccc(F)cc1O` [Example 480, 2-[6-[(4aS,8aR)-6-methyl-3,4a,5,7,8,8a-hexahydro-2H-pyrido[4,3-b][1,4]oxazin-4-yl]-4-methyl-pyridazin-3-yl]-5-fluoro-phenol] gave an IC50 of 6 nM. `CCc1cc(C(F)(F)F)cc(O)c1-c1ccc(N2CCO[C@@H]3CCN(C)C[C@@H]32)nn1` [Example 481, 2-[6-[(4aS,8aR)-6-methyl-3,4a,5,7,8,8a-hexahydro-2H-pyrido[4,3-b][1,4]oxazin-4-yl]pyridazin-3-yl]-3-ethyl-5-(trifluoromethyl)phenol] gave an IC50 of 2 nM. Compound `C#Cc1cc(C)c(-c2ccc(N3CCO[C@H](CO)C3)nn2)c(O)c1` [Example 508, 5-ethynyl-2-[6-[(2S)-2-(hydroxymethyl)morpholin-4-yl]pyridazin-3-yl]-3-methyl-phenol] has an IC50 of 40 nM. For `Cc1cc(O)c(-c2ccc(N3CCO[C@H](CO)C3)nn2)c(C(F)(F)F)c1` [Example 509, 2-[6-[(2S)-2-(hydroxymethyl)morpholin-4-yl]pyridazin-3-yl]-5-methyl-3-(trifluoromethyl)phenol], the IC50 was 16 nM. Work on `CC(=O)N1CC[C@H]2CCN(c3cc(C)c(-c4ccc(C(F)(F)F)cc4O)nn3)[C@H]2C1` [Example 514, 1-[(3aR,7aR)-1-[6-[2-hydroxy-4-(trifluoromethyl)phenyl]-5-methyl-pyridazin-3-yl]-3,3a,4,5,7,7a-hexahydro-2H-pyrrolo[2,3-c]pyridin-6-yl]ethanone] yielded an IC50 of 196 nM. `Cc1cc(C(F)(F)F)cc(O)c1-c1ccc(N2CCC[C@H]3[C@@H]2CCCN3C)nn1` [Example 515, 2-[6-[(4aS,8aS)-5-methyl-2,3,4,4a,6,7,8,8a-octahydro-1,5-naphthyridin-1-yl]pyridazin-3-yl]-3-methyl-5-(trifluoromethyl)phenol] was tested, and the IC50 was 44 nM. Compound `Cc1cc(C(F)(F)F)cc(O)c1-c1ccc(N2CCC[C@@H]3[C@H]2CCCN3C)nn1` [Example 516, 2-[6-[(4aR,8aR)-5-methyl-2,3,4,4a,6,7,8,8a-octahydro-1,5-naphthyridin-1-yl]pyridazin-3-yl]-3-methyl-5-(trifluoromethyl)phenol] has an IC50 of 1080 nM. With `Cc1cc(C)c(-c2ccc(N3CCC[C@@H]4CCN(C)C[C@H]43)nn2)c(O)c1` [Example 517, 2-[6-[(4aR,8aS)-7-methyl-2,3,4,4a,5,6,8,8a-octahydro-1,7-naphthyridin-1-yl]pyridazin-3-yl]-3,5-dimethyl-phenol] the IC50 was 1340 nM. `Cc1cc(C)c(-c2ccc(N3CCC[C@H]4CCN(C)C[C@H]43)nn2)c(O)c1` [Example 518, 2-[6-[(4aS,8aS)-7-methyl-2,3,4,4a,5,6,8,8a-octahydro-1,7-naphthyridin-1-yl]pyridazin-3-yl]-3,5-dimethyl-phenol] showed an IC50 of 1220 nM. For `Cc1cc(C)c(-c2ccc(N3CCC[C@@H]4CCN(C)C[C@@H]43)nn2)c(O)c1` [Example 519, 2-[6-[(4aR,8aR)-7-methyl-2,3,4,4a,5,6,8,8a-octahydro-1,7-naphthyridin-1-yl]pyridazin-3-yl]-3,5-dimethyl-phenol], the IC50 was 7 nM. Compound `Cc1cc(C)c(-c2ccc(N3CCC[C@H]4CCN(C)C[C@@H]43)nn2)c(O)c1` [Example 520, 2-[6-[(4aS,8aR)-7-methyl-2,3,4,4a,5,6,8,8a-octahydro-1,7-naphthyridin-1-yl]pyridazin-3-yl]-3,5-dimethyl-phenol] has an IC50 of 55 nM. In the case of `Cc1cc(C)c(-c2ccc(N3CCO[C@@H]4CCN(CCF)C[C@@H]43)nn2)c(O)c1` [Example 521, 2-[6-[(4aS,8aR)-6-(2-fluoroethyl)-3,4a,5,7,8,8a-hexahydro-2H-pyrido[4,3-b][1,4]oxazin-4-yl]pyridazin-3-yl]-3,5-dimethyl-phenol], the IC50 is reported as 28 nM. With `Cc1cc(Cl)cc(O)c1-c1ccc(N2CCO[C@@H]3CCN(CCF)C[C@@H]32)nn1` [Example 522, 2-[6-[(4aS,8aR)-6-(2-fluoroethyl)-3,4a,5,7,8,8a-hexahydro-2H-pyrido[4,3-b][1,4]oxazin-4-yl]pyridazin-3-yl]-5-chloro-3-methyl-phenol] the IC50 was 21 nM. For `Cc1cc(C(F)(F)F)cc(O)c1-c1ccc(N2CCC[C@@H]3CCN(C)C[C@@H]32)nn1` [Example 523, 2-[6-[(4aR,8aR)-7-methyl-2,3,4,4a,5,6,8,8a-octahydro-1,7-naphthyridin-1-yl]pyridazin-3-yl]-3-methyl-5-(trifluoromethyl)phenol], the IC50 was 681 nM. Compound `Cc1cc(C(F)(F)F)cc(O)c1-c1ccc(N2CCC[C@H]3CCN(C)C[C@H]32)nn1` [Example 524, 2-[6-[(4aS,8aS)-7-methyl-2,3,4,4a,5,6,8,8a-octahydro-1,7-naphthyridin-1-yl]pyridazin-3-yl]-3-methyl-5-(trifluoromethyl)phenol] has an IC50 of 8 nM. Work on `Oc1cc(Cl)ccc1-c1ccc(N2CCO[C@@H]3CCN(CCF)C[C@@H]32)nn1` [Example 525, 2-[6-[(4aS,8aR)-6-(2-fluoroethyl)-3,4a,5,7,8,8a-hexahydro-2H-pyrido[4,3-b][1,4]oxazin-4-yl]pyridazin-3-yl]-5-chloro-phenol] yielded an IC50 of 631 nM. `CCc1cc(Cl)cc(O)c1-c1ccc(N2CCO[C@@H]3CCN(CC)C[C@@H]32)nn1` [Example 526, 2-[6-[(4aS,8aR)-6-ethyl-3,4a,5,7,8,8a-hexahydro-2H-pyrido[4,3-b][1,4]oxazin-4-yl]pyridazin-3-yl]-5-chloro-3-ethyl-phenol] showed an IC50 of 1 nM. `Cc1cc(C)c(-c2ccc(N3CCO[C@@H]4CCN(CCCF)C[C@@H]43)nn2)c(O)c1` [Example 527, 2-[6-[(4aS,8aR)-6-(3-fluoropropyl)-3,4a,5,7,8,8a-hexahydro-2H-pyrido[4,3-b][1,4]oxazin-4-yl]pyridazin-3-yl]-3,5-dimethyl-phenol] was tested, and the IC50 was 20 nM.

These compounds were tested on NF-kB pathway (TNF-α secretion by THP-1 cells) (assay: TNF-α secretion assay in LPS-stimulated THP-1 cells, Lumit immunoassay). Conditions: Homo sapiens, THP-1, 3 h, monocytic THP-1 cells, LPS 10 ng/mL, relative IC50, 10 concentrations, geometric mean.
Type: cell-based, human
Procedure: Monocytic THP-1 cells were maintained in RPMI 1640 media (Gibco 21875)+10% FBS, (Gibco 10500)+1% penicillin/streptomycin (Gibco 15140-122). Cells were then plated at 40,000 cells per well in 384-well cell culture plates (Corning 3542) and maintained with RPMI1640 (Gibco 11835)+5% FBS, (Gibco 10500). Experimental compounds were prepared and added as described above. TNF-α secretion was triggered by the addition of 10 ng/mL LPS (invivoGen, tlrl-3pelps) and cells were incubated for 3 hours. TNF-α levels were monitored directly in the cells plate using an Lumit assay (Lumit TNFa-Human Immunoassay—Promega W6051) according to manufacturers' instructions.
Data were expressed as percentage of inhibition (I %) as compared to a maximum signal control containing no small molecule (I %=0%) according to the formula: 1%=(1−((Sample−Min))/((Max−Min)))×100, where: • Sample: Signal obtained in the presence of each compound tested, • Max: Maximum signal in the absence of compound added, • Min: Minimum or background signal obtained in the absence of activation signal.
Relative IC50 (IC50 rel) were obtained from a dose response curve with 10 concentrations. Final IC50 rels are expressed as the geometric mean.
Relative IC50 values were estimated with Biost@t-SPEED v2.4 internal software based on SAS system using the 4-parameter logistic model according to Ratkovsky and Reedy (D. A. Ratkovsky, T. J. Reedy, Choosing near-linear parameters in the four parameters logistic model radioligands and related assays. Biometrics, 42 (1986), 575-582): Y=A+C/((1+exp(−B*(log(X)−M)))), where: • A: Lower asymptote (BOTTOM), • A+C: Upper asymptote (TOP), • M: the logarithm of the concentration estimated at the inflexion point (the logarithm of the relative IC50), • B: Slope at the inflexion point of the curve.
For `Cc1cc(C)c(-c2ccc(N3CCO[C@H]4CN(C5CCC5)CC[C@H]43)nn2)c(O)c1` (racemic) [Example 4, 3,5-dimethyl-2-[6-[rac-(4aS,8aR)-6-cyclobutyl-3,4a,5,7,8,8a-hexahydro-2H-pyrido[3,4-b][1,4]oxazin-1-yl]pyridazin-3-yl]phenol], the IC50 was > 10000 nM. `Cc1cc(C)c(-c2ccc(N3CCO[C@@H]4COCC[C@H]43)nn2)c(O)c1` (racemic) [Example 154, 3,5-dimethyl-2-[6-[rac-(4aR,8aS)-3,4a,5,7,8,8a-hexahydro-2H-pyrano[3,4-b][1,4]oxazin-1-yl]pyridazin-3-yl]phenol] was tested, and the IC50 was > 10000 nM. With `Cc1cc(C)c(-c2ccc(N3CCO[C@H]4CCNC[C@H]43)nn2)c(O)c1` (racemic) [Example 195, 3,5-dimethyl-2-[6-[rac-(4aR,8aS)-2,3,4a,5,6,7,8,8a-octahydropyrido[4,3-b][1,4]oxazin-4-yl]pyridazin-3-yl]phenol] the IC50 was > 10000 nM.
